The first assay relates to APP-transfected SH-SY5Y cells. The experiment in a line: MTT assay, cell viability of APP-transfected SH-SY5Y cells. Particulars: 0.5, 1, 5, 10 and 20 μM, 4 hours, compared to the untreated APP group. It is filed as cell-based, human. How it is done: The human APPswe/ind gene under the transcriptional control of the SV40 promoter/enhancer linked to the pCAX mammalian expression vector was obtained from addgene; The gene was deposited in the APP reservoir by Dennis Solkoe (plasmid 30145). The plasmid was amplified by DH5alpha strain in LB medium containing 50 μg/ml of ampicillin. The plasmid was purified by using a Qiagen plasmid mini kit (Cat #12143) and digested with EcoRV restriction enzyme and confirmed. The human neuroblastoma cell line SHYSY5Y used in the present in vitro experiments was cultured in DMEM medium containing 10% fetal bovine serum and 1% penicillin-streptomycin antibiotic (stock solutions concentrations of 10,000 U and 10,000 μg/ml, respectively)).
SH-SY5Y cells and HT-22 cells were inoculated into a culture flask containing the medium, and cultured until reaching the confluency of 70% to 75%. The pCAX vector with the APPswe/ind gene was transfected for 48 hours by using Lipofectamine 3000 (Life technologies) according to the manufacturers instructions.
APPswe/ind transfected SH-SY5Y cells were treated with novel peptide for 4 hours, followed by 3-[4, 5-dimethylthiazol-2-yl]-2,5-diphenyl tetrazolium bromide (MTT) analysis and Western blot analysis.
MTT assay was performed to measure the survival rate of cells treated with various concentrations of adiponectin receptor-activating novel peptide (5AA1). The cells were inoculated at 1×10^5 cells/well in a 96-well plate containing 200 μl of Dulbecco's modified Eagle's medium (DMEM). After 70% of cell confluence, SH-SY5Y cells were treated with 0.5 μM, 1 μM, 5 μM, 10 μM, and 20 μM of adiponectin receptor-activating novel peptide, and then cultured for 4 hours. At the end of the treatment, MTT (5 mg/ml in PBS) was added to each well, and the plate was cultured at a temperature of 37° C. for 4 hours. The formazan dissolved in dimethyl sulfoxide (DMSO) was added to the well and the plate was stirred in the agitator for 10 to 20 minutes. Then, the absorbance was measured at a wavelength of 550 nm to 570 nm (L1) and 620 nm to 650 nm (L2) by using a scanning microplate reader.
The L2 absorbance was measured for cell residuals and well imperfections, and the corrected absorbance (Abs.=L1−L2) of each well was calculated from 100× the absorbance of treated well/absorbance of the control well, and was used to measure the cell viability.
In general terms: Tetrazolium dyes change colour on reduction, which living cells bring about.
For “GPWGP (adiponectin receptor-activating peptide) [5AA2]”, the cell viability result is recorded as “concentration-dependently increased”.

For “GPCYP (adiponectin receptor-activating peptide) [5AA3]”, the cell viability result is given as “increased compared to the APP group, although the increase was not dependent on concentration”.

Regarding “GPCWP (adiponectin receptor-activating peptide) [5AA4]”, the cell viability entry is given as “increased compared to the APP group, although the increase was not dependent on concentration”.

For the next assay, the system named is APP/PS1 mice. Nature of the assay: Thioflavin S staining / immunofluorescence analysis of amyloid plaques in brain. It is filed as in vivo. The conditions noted are these: cortex of APP/PS1 mice, compared to Veh-injected APP/PS1 mice, P<0.001. How it is done: Adiponectin receptor-activating novel peptide (5AA1) was IP administered to 10 week old APP/PS1 mice once every 2.5 days for 45 days, and then, to prepare a slide section, the brains of the mice were fixed by transcardial perfusion of ice-cold 4% paraformaldehyde. The brains were fixed in 4% paraformaldehyde for 72 hours, and then, transferred to 20% sucrose and maintained at a temperature of 4° C. for 72 hours. The brains were placed in an optimal cutting temperature (OCT) compound (A.O., USA), frozen in liquid nitrogen, and sectioned into coronal plane (14 μm) in CM 3050C cryostat (Leica, Germany). Pictures of tissue sections were taken on ProbeOn Plus charged slides (Fisher, USA).
Immunofluorescence analysis was performed by using minor modifications of the method described in the existing study (Shah et al., 2014; Shah et al., 2015). Slides containing tissue sections were washed twice with a 0.01 M PBS solution for 15 minutes. Proteinase K was added to the tissue sections, which were then cultured at a temperature of 37° C. for 5 minutes. The tissue sections were then reacted in a blocking solution (5% normal goat serum, 0.3% Triton X-100, PBS) for 1 hour. The slides were reacted overnight with the primary antibody (the same antibody used in the ‘Western blot analysis’) and then reacted with secondary TRITC- or FITC-conjugated antibodies (diluted 1:50 in PBS; Santa Cruz) at room temperature for 90 minutes. The slides were dipped in Prolong Antifade reagent (Molecular Probe, Eugene, Oreg., USA) and stained. All stained slides were analyzed with a confocal laser scanning microscope (Flouview FV 1000). Amyloid plaques were visualized in brain slices after Thioflavin S staining. The brain slices were washed twice with 0.01 M PBS for 10 minutes, and then immersed in fresh 1% Thioflavin S solution at room temperature for 10 minutes. The brain slices were then immersed in 70% ethanol for 5 minutes, then washed twice with water, counterstained with propidium iodide (PI) and covered with cover glass.
Morphological analysis and signals were analyzed with Image J software (open source software provided by the US NIH), and the analysis results were expressed as IOD (Integral Optical Density). The ratio of the amyloid deposit site in the proposed area was also quantified by using Image-J software.
For “GPWGP (adiponectin receptor-activating peptide) [5AA2]”, the “integrated density of the Aβ plaques in the cortex (Thioflavin S)” value (“integrated density of the Aβ plaques” below) is listed as “significantly reduced”.

On to “GPCYP (adiponectin receptor-activating peptide) [5AA3]”, for which the “integrated density of the Aβ plaques” value was “significantly reduced”.

Take “GPCWP (adiponectin receptor-activating peptide) [5AA4]”: the “integrated density of the Aβ plaques” value is recorded as “significantly reduced”.

Source of the values: US10618937B2, “Method of treating Alzheimer's disease” (INDUSTRY-ACADEMIC COOPERATION FOUNDATION GYEONGSANG …, priority 2016, dated 2020).
